# Literature values, collected in patent US20150217002A1, “NEAR-INFRARED SPECTROSCOPY AND OPTICAL REPORTER” (THE RESEARCH FOUNDATION FOR THE STATE UNIVERSITY OF NEW YORK, priority 2012, published 2015).
# Columns and labels:
# [1] = removed from the circulation system by the liver
# [2] = in blood excited with 800 nm light, 0.08 mg/L
smiles,measurement,setting,value
"CC1(C)C(/C=C/C=C/C=C/C=C2\N(CCCCS(=O)(=O)O)c3ccc4ccccc4c3C2(C)C)=[N+](CCCCS(=O)(=O)[O-])c2ccc3ccccc3c21 [ICG, indocyanine green]",in vivo half-life,[1],about 3 minutes
same,quantum yield,[2],about 0.013
